Experimental findings from ChEMBL document CHEMBL5634072, “The recent advance of Interleukin-1 receptor associated kinase 4 inhibitors for the treatment of inflammation and related diseases” (Eur J Med Chem, 2023) are described below.

Experiment [1] has as its target Protein cereblon/Interleukin-1 receptor-associated kinase 4 (Homo sapiens, UniProt Q96SW2+Q9NWZ3). In words: Binding affinity to CRBN/IRAK4 in human PBMC cells assessed as inhibition of LPS-stimulated IL-6 production incubated for 24 hrs by MSD analysis. Format: cell-based.
Experiment [2] concerns the target T1, Interleukin-1 receptor-associated kinase 4 (Homo sapiens, UniProt Q9NWZ3).
T1 sequence (Q9NWZ3 whole entry): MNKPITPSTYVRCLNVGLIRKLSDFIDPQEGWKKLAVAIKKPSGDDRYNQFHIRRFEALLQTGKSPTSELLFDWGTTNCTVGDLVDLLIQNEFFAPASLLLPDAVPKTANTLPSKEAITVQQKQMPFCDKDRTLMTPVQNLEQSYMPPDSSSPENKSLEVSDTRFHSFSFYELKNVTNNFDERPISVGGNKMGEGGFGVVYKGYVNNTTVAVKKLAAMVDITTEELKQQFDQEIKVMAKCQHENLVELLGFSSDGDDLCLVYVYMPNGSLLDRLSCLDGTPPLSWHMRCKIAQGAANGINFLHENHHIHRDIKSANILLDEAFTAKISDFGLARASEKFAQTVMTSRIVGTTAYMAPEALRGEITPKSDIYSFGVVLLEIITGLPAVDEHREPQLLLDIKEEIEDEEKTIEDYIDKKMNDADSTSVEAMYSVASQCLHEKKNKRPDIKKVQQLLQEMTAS
In words: Inhibition of IRAK4 (unknown origin).

The target of experiment [3] is T1, Interleukin-1 receptor-associated kinase 4. In words: Inhibition of IRAK4 (unknown origin) by discoverX kinome scan assay.
Experiment [4] has the same target. The experiment is described as follows: Inhibition of IRAK4 (unknown origin) by Ambit kinase assay.
Another experiment concerns the target Cyclic GMP-AMP synthase (Homo sapiens, UniProt Q8N884). In words: Inhibition of cyclic GMP-AMP synthase (unknown origin).
For experiment [5], the target named is Interleukin-1 receptor-associated kinase 1 (Homo sapiens, UniProt P51617). The experiment is described as follows: Inhibition of IRAK1 (unknown origin) by Ambit kinase assay.
The target of experiment [6] is T2, Protein cereblon/Interleukin-1 receptor-associated kinase 4 (Homo sapiens) (UniProt Q9NWZ3+Q96SW2). In words: PROTAC activity at CRBN/IRAK4 in human PBMC cells assessed as induction of degradation at 0.01 uM measured after 24 hrs by Immuno-blotting analysis relative to control. Format: cell-based.
Experiment [7] concerns the target T2, Protein cereblon/Interleukin-1 receptor-associated kinase 4 (Homo sapiens). In words: PROTAC activity at CRBN/IRAK4 in human PBMC cells assessed as induction of degradation at 0.1 uM measured after 24 hrs by Immuno-blotting analysis relative to control. It counts as cell-based.
The target is the same in experiment [8]. In words: PROTAC activity at CRBN/IRAK4 in human PBMC cells assessed as induction of degradation at 1 uM measured after 24 hrs by Immuno-blotting analysis relative to control. It counts as cell-based.

Chain of Protein cereblon/Interleukin-1 receptor-associated kinase 4 (Q96SW2 whole entry, one chain of several): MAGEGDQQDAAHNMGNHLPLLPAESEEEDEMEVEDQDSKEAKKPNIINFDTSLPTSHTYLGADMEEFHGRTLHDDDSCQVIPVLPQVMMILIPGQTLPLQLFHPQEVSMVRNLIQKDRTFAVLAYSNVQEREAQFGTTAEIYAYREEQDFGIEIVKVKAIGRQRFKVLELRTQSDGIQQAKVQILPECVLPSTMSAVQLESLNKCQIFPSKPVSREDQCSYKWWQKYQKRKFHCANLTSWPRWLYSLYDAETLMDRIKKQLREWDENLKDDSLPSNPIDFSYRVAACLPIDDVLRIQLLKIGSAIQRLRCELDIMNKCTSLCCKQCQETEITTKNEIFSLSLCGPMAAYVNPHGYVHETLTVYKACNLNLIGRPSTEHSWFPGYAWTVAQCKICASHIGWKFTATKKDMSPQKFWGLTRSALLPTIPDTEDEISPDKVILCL
T2 sequence (Q96SW2 whole entry, looked up, one chain of several): as the sequence (Q96SW2 whole entry, one chain of several) above
Chain of Cyclic GMP-AMP synthase (Q8N884 whole entry): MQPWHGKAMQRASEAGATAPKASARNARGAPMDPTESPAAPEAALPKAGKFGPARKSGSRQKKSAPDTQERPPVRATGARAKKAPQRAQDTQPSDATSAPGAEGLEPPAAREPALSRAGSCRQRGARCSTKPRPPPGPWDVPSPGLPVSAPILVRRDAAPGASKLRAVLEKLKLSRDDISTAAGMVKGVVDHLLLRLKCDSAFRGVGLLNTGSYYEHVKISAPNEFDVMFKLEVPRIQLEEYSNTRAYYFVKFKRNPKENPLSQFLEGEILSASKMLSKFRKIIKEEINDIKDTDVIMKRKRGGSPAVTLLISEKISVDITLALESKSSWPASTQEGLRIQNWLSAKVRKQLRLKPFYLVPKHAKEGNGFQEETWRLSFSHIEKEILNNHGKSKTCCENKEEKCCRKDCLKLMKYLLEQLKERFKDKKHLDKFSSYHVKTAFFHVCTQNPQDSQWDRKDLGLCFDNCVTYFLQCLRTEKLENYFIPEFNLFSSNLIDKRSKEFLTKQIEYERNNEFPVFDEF
Chain of Interleukin-1 receptor-associated kinase 1 (P51617 whole entry): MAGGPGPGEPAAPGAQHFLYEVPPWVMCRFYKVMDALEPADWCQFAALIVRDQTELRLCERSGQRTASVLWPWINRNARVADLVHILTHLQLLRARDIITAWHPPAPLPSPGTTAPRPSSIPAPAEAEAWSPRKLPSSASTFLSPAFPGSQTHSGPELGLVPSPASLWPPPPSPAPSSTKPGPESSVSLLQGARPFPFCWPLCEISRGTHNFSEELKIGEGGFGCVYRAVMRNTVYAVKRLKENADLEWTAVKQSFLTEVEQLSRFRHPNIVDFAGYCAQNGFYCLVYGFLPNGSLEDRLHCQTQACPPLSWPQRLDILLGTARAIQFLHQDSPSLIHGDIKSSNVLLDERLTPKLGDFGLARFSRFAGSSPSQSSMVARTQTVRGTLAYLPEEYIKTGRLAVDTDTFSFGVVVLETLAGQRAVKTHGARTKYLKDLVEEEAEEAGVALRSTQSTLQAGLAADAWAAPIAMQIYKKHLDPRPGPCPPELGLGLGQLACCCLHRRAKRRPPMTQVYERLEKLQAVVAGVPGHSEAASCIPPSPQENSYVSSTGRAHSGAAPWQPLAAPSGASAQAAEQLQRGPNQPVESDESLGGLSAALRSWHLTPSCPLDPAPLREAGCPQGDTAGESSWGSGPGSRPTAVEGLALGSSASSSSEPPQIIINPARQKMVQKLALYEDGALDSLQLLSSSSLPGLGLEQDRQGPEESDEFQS

As to `Cn1cc2c(n1)C(=O)NCCn1cc(cn1)-c1ccc(=O)n(n1)Cc1cccc(c1)C(=O)N2`, the IC50 in experiment [1] is less than 100 nM.
Still for that read-out and setting: to `Cn1cc2c(n1)C(=O)NCC1CN(CCO1)C(=O)OCCn1cc(cn1)-c1cccc(n1)C(=O)N2` (centres undefined) belongs 100 nM.
Consider `CCO[C@H]1CC[C@@H](n2cc(NC(=O)c3csc(-c4cn[nH]c4)n3)c(-c3nc(F)ccc3F)n2)CC1`, for which a half-maximal response in experiment [2] (EC50) required 195 nM. That is a sub-micromolar value.
For the molecule `O=C1Nc2cn(C3CCOCC3)nc2C(=O)NCCOCCCc2cc(ccn2)-c2nc1cs2`, in experiment [3], the IC50 is 1 nM.
In experiment [4], `CC(C)(O)CCn1cc2cc(NC(=O)c3cccc(C(F)(F)F)n3)c(C3COC3)cc2n1` displayed an IC50 of 1.6 nM.
Still for that read-out and setting: to `Cc1cc(-c2nc(C(=O)Nc3cc4cn(CCC(C)(C)O)nc4cc3C(C)(C)O)co2)ccn1` belongs 0.55 nM.
Molecule `Cc1ccn2c(C(=O)C(=O)c3ccccc3)c(-c3ccccc3)nc2c1` gave a 50% inhibitory concentration (IC50) against Cyclic GMP-AMP synthase of 2.1 nM.
As to `O=C1Nc2nc3ccccc3n2Cc2cc(ccn2)-c2ccc(=O)n(n2)Cc2cccc1c2`, in experiment [1], the IC50 is less than 100 nM.
Take `O=C(Nc1ccc(CN2CCNCC2)c(C(F)(F)F)c1)c1cccc(-c2ccc3nc(NC(=O)C4CC4)sc3n2)c1`: the half-maximal inhibitory concentration (IC50) in experiment [2] is 165 nM.
The molecule `CN(C)[C@H]1CC[C@H](Oc2ncnc3sc4c(c23)[C@@H](CCC#N)CC4)CC1` yielded an IC50 in [5] of less than 5000 nM.
Regarding `O=C1CCC(N2C(=O)c3cccc(NCc4cn(CCCNC(=O)c5ccc(-n6cc(NC(=O)c7coc(-c8ccnc(NCC9CC9)c8)n7)c(C(F)(F)F)n6)cc5)cn4)c3C2=O)C(=O)N1` (centres undefined), the Activity was less than 20% in experiment [6], more than 20% in experiment [7] and more than 50% in experiment [8].
In [2], `CC(C)CCNC(=O)c1ccc2c(c1)nc(Nc1n[nH]c3ccc(-c4ccccc4OC(F)(F)F)cc13)n2C1CCC(O)CC1` (centres undefined) had a 50% inhibitory concentration (IC50) of less than 10 nM.

As a reminder, the IC50 is the point on the concentration scale where inhibition reaches its midpoint. One may read the EC50 as the concentration that produces a half-maximal response. A higher EC50 goes with weaker potency.
